Results taken from US10479766B2, “Deuterated CFTR potentiators” (Vertex Pharmaceuticals (Europe) Limited, priority 2011, dated 2019).
Values joined by “and” are separate entries in the source; they are usually repeats but may differ in a detail not shown here. Identical values can stand only once. Like-named read-outs stand apart in the source and are kept apart here.

How the values were obtained:
[1] = Pharmacokinetics in rats after oral gavage; type: in vivo; settings: rat, PO 10 mg/kg in 100% PEG400, plasma; for half-life: plasma, po, 10 mg/kg
Protocol: Ivacaftor, compound 105 and compound 106 were discrete dosed to rats via oral gavage (PO). Each compound was administered at a dose of 10 mg/kg to three rats (N=3 rats/compound; total of 9 rats in the study). […] Blood samples were centrifuged to obtain plasma. Plasma samples were analyzed for concentrations of the dosed compound at each time point using LC-MS/MS. The limit of quantitation of each compound was 1 ng/mL.

[2] = tested on: patients with cystic fibrosis carrying at least one copy of the G551D-CFTR mutation; settings: phase III trials; cited from earlier work
[3] = individual animals, read-out: t1/2 (hr), individual animal (converted)
[4] = mean of N=3 rats, read-out: t1/2 (hr), Mean (converted)

t1/2 (hr), individual animal ([1]; individual animals)	half-life [1, 3] [h]	half-life [1, 4] [h]	SMILES	lung function and other key indicators of the disease (sweat chloride levels, likelihood of pulmonary exacerbations, body weight) [2]
16.33 h and 14.39 h	13.8	14.8	[2H]C([2H])([2H])C(c1cc(C(C([2H])([2H])[2H])(C([2H])([2H])[2H])C([2H])([2H])[2H])c(NC(=O)c2c[nH]c3ccccc3c2=O)cc1O)(C([2H])([2H])[2H])C([2H])([2H])[2H] [Compound 105, N-(2,4-Di-(tert-butyl-d9)-5-hydroxyphenyl)-4-oxo-1,4-dihydroquinoline-3-carboxamide]	–
14.28 h and 11.92 h	13.5	13.2	[2H]C([2H])([2H])C(c1cc(C(C)(C)C)c(NC(=O)c2c[nH]c3ccccc3c2=O)cc1O)(C([2H])([2H])[2H])C([2H])([2H])[2H] [Compound 106, N-(2-(tert-Butyl)-4-(tert-butyl-d9)-5-hydroxyphenyl)-4-oxo-1,4-dihydroquinoline-3-carboxamide]	–
12.43 h and 10.01 h	9.03	10.5	CC(C)(C)c1cc(C(C)(C)C)c(NC(=O)c2c[nH]c3ccccc3c2=O)cc1O [Ivacaftor, N-(2,4-di-tert-butyl-5-hydroxyphenyl)-4-oxo-1,4-dihydroquinoline-3-carboxamide, reference compound]	marked levels of improvement
